We go through 20 compounds from patent US10030016B2 (Sunesis Pharmaceuticals, Inc., priority 2009, dated 2018).

Usually EC50 stands for the concentration that produces a half-maximal response. For orientation: IC50 means the point on the concentration scale where inhibition reaches its midpoint. High values mean lower potency, low ones higher potency.

The test system of assay [1] is phospho-akt (Thr308) in PC-3 cells. The assay is described as follows: Inhibition of phospho-akt (Thr308) in PC-3 cells, MSD phospho-akt 308 ELISA kit. Type of assay: cell-based. The note with it: 2 hours, no serum, read-out: EC50. Put shortly: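 PC-3 cells were seeded overnight in growth medium with 10% FBS, then exposed to compound serially diluted threefold in serum-free medium for 2 hours. Lysates were captured overnight at 4 degrees on MSD plates and phospho-Akt Thr308 was detected electrochemiluminescently, against DMSO high and 5 μM wortmannin low controls.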
On the technique in general: An ELISA detects its analyte on a solid surface through an enzyme-linked reagent.

For assay [2], the target named is PDK1 (Homo sapiens (Human), UniProt O15530). The assay is described as follows: PDK1 kinase assay (coupled PDK1/AKT/FAM-crosstide assay, IMAP fluorescence polarization). Type of assay: biochemical. In a few lines:
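PDK1 activity is measured indirectly through activation of a PIFtide-fused AKT2 construct that phosphorylates FAM-crosstide (100 nM). The reaction uses 0.75 nM PDK1, 40 μM ATP, 30 min, 25° C, with IMAP polarization detection.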

Setting [3] is: Homo sapiens, inhibition of P308 Akt in PC-3 cells, MSD.
The mark [4] stands for this setting: inhibition of phospo-PDK1 in vitro.
Setting [5] is: Homo sapiens, inhibition of P308 Akt in PC-3 cells using MSD.
Where [6] appears, read: inhibition of P308 Akt in PC-3 cells using MSD.

Where a name gives a salt, the structure may show the parent alone. Read-outs that look alike come from different tables or passages of the source.

PDK1, sequence (O15530 51-359): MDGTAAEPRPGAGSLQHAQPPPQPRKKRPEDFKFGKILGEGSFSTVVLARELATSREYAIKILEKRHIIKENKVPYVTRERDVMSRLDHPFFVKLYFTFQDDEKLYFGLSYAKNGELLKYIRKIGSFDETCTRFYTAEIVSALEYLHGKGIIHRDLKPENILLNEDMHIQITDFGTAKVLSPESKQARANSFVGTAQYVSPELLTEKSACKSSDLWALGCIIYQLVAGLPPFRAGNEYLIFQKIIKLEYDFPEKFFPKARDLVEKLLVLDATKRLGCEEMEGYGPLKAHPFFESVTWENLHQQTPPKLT

Take `Nc1ncnc2ccc(-c3ccc(CNc4nccnc4C(=O)NCc4cc(F)c(F)c(F)c4)s3)cc12` [Example 3.71, 3-({[5-(4-aminoquinazolin-6-yl)thiophen-2-yl]methyl}amino)-N-(3,4,5-trifluorobenzyl)pyrazine-2-carboxamide (TFA salt)]: the EC50 in assay [1] (setting [3]) was < 1 µM. Moreover, the IC50 in assay [2] (setting [4]) was < 0.1 µM.

Consider `Nc1n[nH]c2ncc(-c3ccc(CNc4ncc(C(F)(F)F)cc4C(=O)NCC4CCOC4)cc3)cc12` (stereo not shown) [Example 268, 2-(4-(3-amino-1H-pyrazolo [3,4-b]pyridin-5-yl)benzylamino)-N-((tetrahydro-furan-3-yl)methyl)-5-(trifluoromethyl) nicotinamide], for which the EC50 in assay [1] (setting [5]) is > 10 µM. The IC50 in assay [2] (inhibition of PDK1 in vitro) lay in the range of 0.1 to 1 µM.

“(S)-2-(4-(4-amino-7-methyl- 7H-pyrrolo[2,3-d]pyrimidin- 5-yl)benzylamino)-fluorophenyl) ethyl)nicotinamide [Example 97]”: the EC50 in assay [1] (setting [6]) is < 1 µM. In assay [2] (inhibition of PDK1 in vitro), the IC50 was < 0.1 µM.

Regarding `C#Cc1cnc(NCc2ccc(-c3ccc4ncnc(N)c4c3)s2)c(C(=O)NCc2ccc(F)c(F)c2)c1` [Ex. 8.10, 2-(((5-(4-aminoquinazolin-6-yl)thiophen-2-yl)methyl)amino)-N-(3,4-difluorobenzyl)-5-ethynylnicotinamide], the EC50 in assay [1] (setting [3]) was < 1 µM. In addition, the IC50 in assay [2] (setting [4]) is < 0.1 µM.

Regarding `N#Cc1cnc(NCc2ccc(-c3cnc(N)cn3)cc2)c(C(=O)Nc2ccc(F)cc2)n1` [Example 34, 3-(4-(5-aminopyrazin-2-yl)benzylamino)-6-cyano-N-(4-fluorophenyl) pyrazine-2-carboxamide], the EC50 in assay [1] (setting [3]) is < 1 µM. In addition, the IC50 in assay [2] (setting [4]) was < 0.1 µM.

In the case of `C[C@H](NC(=O)c1cc(I)cnc1NCc1ccc(-c2ccc3ncnc(N)c3c2)s1)c1ccc(F)c(F)c1` [Ex. 7.21.1, 2-({[5-(4-aminoquinazolin-6-yl)thiophen-2-yl]methyl}amino)-N-[(1S)-1-(3,4-difluorophenyl)ethyl]-5-iodopyridine-3-carboxamide], in assay [1] (setting [3]), the EC50 was < 1 µM. The IC50 in assay [2] (setting [4]) lay in the range of 0.1 to 1 µM.

For the compound `O=C(NCc1ccc(F)c(F)c1)c1cccnc1NCc1ccc(-c2ccc3ncnc(NC4CC4)c3c2)s1` [Example 4.10, 2-(((5-(4-(cyclopropylamino)quinazolin-6-yl)thiophen-2-yl)methyl)amino)-N-(3,4-difluorobenzyl)nicotinamide], the EC50 in assay [1] (setting [3]) lay in the range of 1 to 10 µM. In addition, the IC50 in assay [2] (setting [4]) was < 0.1 µM.

As to `C[C@H](NC(=O)c1cc(C#N)cnc1NCc1ccc(-c2cnc3[nH]c(=O)[nH]c3c2)cc1)c1ccc(F)cc1` [Example 116, (S)-5-cyano-N-(1-(4-fluorophenyl)ethyl)-2-(4-(2-oxo-2,3-dihydro-1H-imidazo[4,5-b]pyridin-6-yl)benzyl-amino)nicotinamide], the EC50 in assay [1] (setting [5]) is < 1 µM. For the same compound, the IC50 in assay [2] (inhibition of PDK1 in vitro) is < 0.1 µM.

Take `Nc1ncnn2ccc(-c3ccc(CNc4ncc(C(F)(F)F)cc4C(=O)Nc4ccc(F)cc4)cc3)c12` [Example 177, 2-[4-(4-Amino-pyrrolo [2,1-f][1,2,4]triazin-5-yl)-benzylamino]-N-(4-fluoro-phenyl)-5-trifluoromethyl-nicotinamide]: in assay [1] (setting [5]), the EC50 lay within 1 to 10 µM. Besides, in assay [2] (inhibition of PDK1 in vitro), the IC50 is < 0.1 µM.

Consider `C[C@H](NC(=O)c1nc(C#N)cnc1N[C@H](C)c1ccc(-c2cnc3[nH]nc(N)c3n2)cc1)c1ccc(F)c(F)c1` [Example 411, 3-{(R)-1-[4-(3-Amino-1H-pyrazolo[3,4-b]pyrazin-5-yl)-phenyl]-ethylamino}-6-cyano-pyrazine-2-carboxylic acid [(S)-1-(3,4-difluoro-phenyl)-ethyl]-amide], for which, in assay [1] (setting [5]), the EC50 is < 1 µM. For the same compound, the IC50 in assay [2] (inhibition of PDK1 in vitro) is < 0.1 µM.

`CCCn1cc(-c2ccc(CNc3ncc(C(F)(F)F)cc3C(=O)Nc3ccc(F)cc3)cc2)c2c(N)ncnc21` [Example 429, 2-(4-(4-amino-7-propyl-7H-pyrrolo[2,3-d]pyrimidin-5-yl)benzylamino)-N-(4-fluorophenyl)-5-(trifluoromethyl)nicotinamide]: the EC50 in assay [1] (setting [5]) was 1 to 10 µM. In addition, the IC50 in assay [2] (inhibition of PDK1 in vitro) was < 0.1 µM.

Consider `CC(C)[C@H](NC(=O)c1cccnc1NCc1ccc(-c2ccc3ncnc(N)c3c2)s1)c1ccc(F)cc1` [Example 3.45, (S)-2-((5-(4-aminoquinazolin-6-yl)thiophen-2-yl)methylamino)-N-(1-(4-fluorophenyl)-2-methylpropyl)nicotinamide (TFA salt)], for which the EC50 in assay [1] (setting [3]) lay in the range of 1 to 10 µM. The compound also yielded a half-inhibitory concentration (IC50) in assay [2] (setting [4]) of 0.1 to 1 µM.

Consider `NC(=O)c1cnc(NCc2ccc(-c3ccc4ncnc(N)c4c3)s2)c(C(=O)NCc2ccc(F)c(F)c2)c1` [Ex. 7.24.1, 2-({[5-(4-aminoquinazolin-6-yl)thiophen-2-yl]methyl}amino)-N˜3˜-(3,4-difluorobenzyl)pyridine-3,5-dicarboxamide], for which the EC50 in assay [1] (setting [3]) was < 1 µM. Further, in assay [2] (setting [4]), the IC50 is < 0.1 µM.

Regarding `C#CCNC(=O)c1cc(C(F)(F)F)cnc1NCc1ccc(-c2cnc3[nH]nc(N)c3c2)cc1` [Example 271, 2-(4-(3-amino-1H-pyrazolo [3,4-b]pyridin-5-yl)benzylamino)-N-(prop-2-ynyl)-5-(trifluoromethyl) nicotinamide], the EC50 in assay [1] (setting [5]) lay in the range of 1 to 10 µM. The same compound yielded an IC50 in assay [2] (inhibition of PDK1 in vitro) of 0.1 to 1 µM.

Regarding `N#CCc1n[nH]c2ncc(-c3ccc(CNc4ncc(C(F)(F)F)cc4C(=O)Nc4ccc(F)cc4)cc3)cc12` [Example 157, 2-(4-(3-(cyanomethyl)-1H-pyrazolo[3,4-b]pyridin-5-yl)benzylamino)-N-(4-fluorophenyl)-5-(trifluoro-methyl)nicotinamide], in assay [1] (setting [5]), the EC50 was < 1 µM. The IC50 in assay [2] (inhibition of PDK1 in vitro) was < 0.1 µM.

As to `C[C@@H](NC(=O)c1cccnc1NCc1ccc(-c2ccc3ncnc(N)c3c2)s1)c1cccc(F)c1` [Example 3.20, 2-({[5-(4-aminoquinazolin-6-yl)thiophen-2-yl]methyl}amino)-N-[(1R)-1-(3-fluorophenyl)ethyl] pyridine-3-carboxamide (TFA salt)], the EC50 in assay [1] (setting [3]) was > 10 µM. In assay [2] (setting [4]), the IC50 is > 5 µM.

For `Nc1ncnc2ccc(-c3ccc(CNc4ncc(NC(=O)C(F)(F)F)cc4C(=O)NCc4ccc(F)c(F)c4)s3)cc12` [Example 8.5.6, 2-({[5-(4-aminoquinazolin-6-yl)thiophen-2-yl]methyl}amino)-N-(3,4-difluorobenzyl)-5-[(trifluoroacetyl)amino] pyridine-3-carboxamide], in assay [1] (setting [3]), the EC50 fell in the range of 1 to 10 µM. The IC50 in assay [2] (setting [4]) was 0.1 to 1 µM.

In the case of `NCCNc1nc(-c2ccc(CNc3ncc(C(F)(F)F)cc3C(=O)Nc3ccc(F)cc3)cc2)cnc1N` [Example 194, 2-{4-[5-Amino-6-(2-amino-ethylamino)-pyrazin-2-yl]-benzylamino}-N-(4-fluoro-phenyl)-5-trifluoromethyl-nicotinamide], the concentration for a half-maximal effect (EC50) in assay [1] (setting [5]) was < 1 µM. The IC50 in assay [2] (inhibition of PDK1 in vitro) was < 0.1 µM.

For the compound “2-(4-(3-amino-1H-pyrazolo [3,4-b]pyridin-5-yl) benzylamino)-N-(thiazol- 4-yl)-5-(trifluoromethyl) nicotinamide [Example 287]”, the EC50 in assay [1] (setting [6]) is > 10 µM. In assay [2] (inhibition of PDK1 in vitro), this compound came in with an IC50 of 0.1 to 1 µM.

For the compound `Nc1n[nH]c2ncc(-c3ccc(CNc4ncc(C(F)(F)F)cc4C(=O)Nc4ccc(F)cn4)cc3)cc12` [Example 59, 2-(4-(3-amino-1H-pyrazolo[3,4-b]pyridin-5-yl)benzylamino)-N-(5-fluoropyridin-2-yl)-5-(trifluoromethyl)nicotinamide], the EC50 in assay [1] (setting [5]) was < 1 µM. In addition, the IC50 in assay [2] (inhibition of PDK1 in vitro) is < 0.1 µM.
